Entries after “also recorded” stand apart in the source; their conditions may differ.
Experiments:
[1] = test system: M249-VSR sublines; test: Viability assay for inducing and protecting from ferroptosis; type: cell-based, human; settings: added in combination with RSL3; CellTiter-Glo 24 hr after treatment; FIG. 7B-C / 24B-C
Method: 6000 cells were seeded per well in 96-well plates and treated with ferroptosis inducing agents in combination with vehicle, GSH (Sigma, G4376), Trolox (Acros Organics, 218940010) or DFO (Sigma, D9533) next day. CellTiter-Glo luminescence was assessed 24 hr after treatment. For quantification, all values are normalized to vehicle conditions. Resistance cells were maintained in full dose of MAPK inhibitors throughout the treatments to keep the BRAF amplifications.

[2] = test system: SC4 DM+ cells (M249-VSR single-cell-derived clone); test: FISH assessment of HSRs after long-term DNA-PK inhibition; type: cell-based, human; settings: 5 μM NU7026 for 107 days vs DMSO 90 days; FIG. 2E
Method: (§1) Cells were blocked at metaphases by adding colcemid (KaryoMax, Thermo Fisher Scientific) at a final concentration of 0.05 μg/ml followed by incubation at 37° C. for 6-8 hours. Cells were then fixed using methanol:acetic acid (3:1). FISH slides were prepared by dropping fixed cells in a humid environment following the manufacture's protocol provided by Cytotest and Empire Genomics. FFPE xenograft tumor FISH slides were prepared by pepsin digestion followed by similar procedures of cell line FISH. Colored FISH images were taken and processed using confocal microscope Leica TCS SP8 X. Karyotype categorizations were based on the guidelines in FIG. 8. The fractions under certain images represent the number of cases for corresponding karyotype divided by total number of cases analyzed. If not otherwise mentioned, scale bars in FISH images represent 10 μm. Centromere probe names are abbreviated as CEN-x. DM numbers were quantified by directly counting the number of features in the FISH images or by using ecDNA quantification tool EcSeg (93). HSR lengths were quantified by dividing the probe area by chromosomal DAPI area in metaphases. The staining areas were calculated using ImageJ v1.53a. Cells fixed by the same procedure were also used for G-banding. G-banded metaphase spreads were photographed using 80i Nikon Microscope and Applied Spectral Imaging (ASI) Karyotyping system. […]

[3] = test system: SC2 cells (M249-VSR HSR subclone); test: FISH count of HSRs per cell after long-term DNA-PK inhibition; type: cell-based, human; settings: 5 μM NU7026 for three months vs DMSO; FIG. 2G
Method: as §1

[4] = test system: M249-P, M249-VSR-DM and M249-VSR-HSR cells; test: Dose response curve of ferroptosis inducing agents, viability by CellTiter-Glo; type: cell-based, human; settings: for sensitivity to RSL3 of M249-VSR after drug withdrawal: after VEM+SEL withdrawal, reduced BRAF copy number
Method: (§2) The dose response curves of ferroptosis inducing agents RSL3, Erastin and Ferroptocide were performed by seeding appropriate number of cells on day 0 in 96-well plates, […] luminescent assay. If not otherwise mentioned, resistance cells were maintained in full dose of MAPK inhibitors throughout the dose response experiments to keep the BRAF amplifications. Seeding density for each cell line was determined by using the same assay and the same experimental length with multiple cell number titrations. The dose series were generated by serial dilutions. All drugs used for dose response curves were dissolved in DMSO. DMSO toxicity was performed on the cell lines to determine the appropriate DMSO concentration (0.5%), which was used in all doses. The resulting values from viability assays were normalized to the zero-dose condition after subtracting background (wells with no cells). The curve fittings were performed by using three-parameter model in dre v3.0-1 R package (119).

[5] = test system: A375-DTR cells vs parental; test: as above; type: cell-based
Method: as §2

[6] = test system: Mel888-DTR cells vs parental; test: as above; type: cell-based
Method: as §2

[7] = test system: M249-P and M249-VSR-DM cells; test: Lipid ROS measurement by flow cytometry; type: cell-based, human; settings: FIG. 23A / 25A
[8] = test system: M229P/R, M238P/R and SKMEL28P/R cell lines; settings: resistance through upregulation of RTKs, dedifferentiation; cited from earlier work

With N[C@@H](CCC(=O)N[C@@H](CS)C(=O)NCC(=O)O)C(=O)O [GSH, reduced glutathione] the “rescue of RSL3-induced cell death (percent viable cells)” value [1] was “cell death can be rescued”.
With O=c1cc(N2CCOCC2)oc2c1ccc1ccccc12 [NU7026] the “frequency of cells displaying HSR integrations” value [2] was “decreased the frequency of cells displaying HSR integrations” and the “percentage of cells with multiple HSRs” value [3] was “lower percentage of multiple HSRs”.
With COC(=O)c1ccc([C@@H]2c3[nH]c4ccccc4c3C[C@@H](C(=O)OC)N2C(=O)CCl)cc1 [RSL3] the “sensitivity to RSL3 of M249-VSR-DM and -HSR compared to M249-P” value ([4]; FIG. 7A, 72 hr treatment) was “substantially more sensitive”, the “sensitivity to RSL3 of M249-VSR after drug withdrawal” value ([4]; FIG. 7A, 72 hr treatment) was “lose sensitivity reverting to levels closer to the parental cells” and the “sensitivity to RSL3 of M249-VSR-DM and -HSR compared to M249-P” value ([4]; FIG. 24A, 24 hr treatment, CellTiter-Glo, resistant cells kept in full dose MAPK inhibitors) was “substantially more sensitive”. The “sensitivity to RSL3 of M249-VSR after drug withdrawal” value ([4]; FIG. 24A, 24 hr treatment) was “lose sensitivity reverting to levels closer to the parental cells”, the “RSL3 sensitivity of A375-DTR compared to parental” value ([5]; FIG. 7A, 72 hr treatment) was “increased RSL3 sensitivity” and the “RSL3 sensitivity of A375-DTR compared to parental” value ([5]; FIG. 24A, 24 hr treatment) was “increased RSL3 sensitivity”. For the same molecule, the “RSL3 sensitivity of Mel888-DTR compared to parental” value ([6]; FIG. 7A, 72 hr treatment) was “increased RSL3 sensitivity”, the “RSL3 sensitivity of Mel888-DTR compared to parental” value ([6]; FIG. 24A, 24 hr treatment) was “increased RSL3 sensitivity” and the “lipid ROS levels upon RSL3 treatment” value ([7]; 1 μM RSL3, 24 hr, C11-BODIPY dye) was “increased lipid ROS levels; also recorded: increase in lipid ROS levels”. For the same molecule, the “sensitivity to RSL3 of resistant vs parental lines” value [8] was “increased sensitivity”.
In the case of Cc1c(C)c2c(c(C)c1O)CCC(C)(C(=O)O)O2 (stereo not shown) [Trolox], the “rescue of RSL3-induced cell death (percent viable cells)” value [1] is reported as “cell death can be rescued” and the “protection against RSL3-induced lipid ROS” value ([7]; 150 μM Trolox with 1 μM RSL3, 24 hr) is reported as “protected; also recorded: protects against RSL3-induced lipid ROS”.
With C[C@@H]1CC[C@@]23C[C@H](O)C(=O)[C@@]2(O)[C@]1(C)[C@H](OC(=O)CCl)C[C@@H](C1=CCn2c(=O)n(-c4ccccc4)c(=O)n2C1)[C@@H]3C [ferroptocide] the “sensitivity of BRAF-amplified M249 dual MAPKi-resistant cells compared to parental” value ([4]; FIG. 23B, M249-VSR-DM and -HSR, 72 hr treatment, CellTiter-Glo) was “sensitive”.

Reference: patent publication US20240424002A1, “METHODS AND COMPOSITIONS FOR TREATING MELANOMA” (THE REGENTS OF THE UNIVERSITY OF CALIFORNIA, priority 2021, published 2024)
